This assay concerns the target T1, PCP (putative cysteine protease).
T1 construct: domains 1-48, 49-185 (CHAP, Cys100/His161), 186-247 (PGBD), 248-319 (SH3); monomer; printed peptide 178PVTDALKR185; primers encode start (M)LGQISTA and end KYARLVE
Briefly: tryptophan fluorescence quenching, double-logarithm regression. In kind it is binding, uncultured bacterium (Capra hircus rumen metagenome). Conditions: 50 mM NaH2PO4, 300 mM NaCl, 200 mM imidazole, pH 8.5, 25 °C; protein 5.28 μM; excitation 295 nm; read-out: Kb (converted).

As for `CC1(C)S[C@@H]2[C@H](NC(=O)[C@H](N)c3ccccc3)C(=O)N2[C@H]1C(=O)O` [ampicillin], the Kd is 5.56 µM.

These data come from paper PMC5146660, “Functional and structural characterization of a novel putative cysteine protease cell wall-modifying multi-domain enzyme selected from a microbial metagenome” (Scientific Reports, 2016).
